Experimental data reported in patent publication US10076504B2, “Glucagon antagonists” (Ligand Pharmaceuticals, Inc., priority 2014, dated 2018).
Counter-ions that a name gives are not always drawn.

What was measured:
human glucagon receptor = target: T1, human glucagon receptor (Homo sapiens, UniProt P47871); experiment: Human glucagon receptor binding assay; conditions: displacement of [125I]glucagon from human glucagon receptor; read-out: Hu IC50
T1 construct: host or cells: Either human liver membranes or membranes of an unnamed recombinant cell line
T1 sequence (P47871 26-477): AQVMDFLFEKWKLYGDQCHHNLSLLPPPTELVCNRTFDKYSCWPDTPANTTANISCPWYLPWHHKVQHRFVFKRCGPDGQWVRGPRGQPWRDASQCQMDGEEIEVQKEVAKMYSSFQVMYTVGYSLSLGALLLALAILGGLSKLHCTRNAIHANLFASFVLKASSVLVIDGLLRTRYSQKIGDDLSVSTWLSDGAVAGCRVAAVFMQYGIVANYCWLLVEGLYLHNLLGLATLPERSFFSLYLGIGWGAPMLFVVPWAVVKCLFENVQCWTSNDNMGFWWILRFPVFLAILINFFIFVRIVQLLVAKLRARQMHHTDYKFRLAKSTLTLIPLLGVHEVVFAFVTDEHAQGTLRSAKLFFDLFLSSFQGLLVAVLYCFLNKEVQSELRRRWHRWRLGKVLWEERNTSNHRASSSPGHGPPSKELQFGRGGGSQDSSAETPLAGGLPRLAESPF
Method: Compounds provided herein are dissolved in a suitable solvent (e.g., dimethylsulfoxide) at a concentration of 10 mM and then diluted in buffer (e.g., 50 mM Hepes, pH 7.4, 5 mM MgCl2, 1 mM CaCl2, and 0.2% BSA) to concentrations ranging from 1 nM to 100 μM. Compounds (20 μL/well) and [^125I]glucagon at the final concentration of 0.125 nM (20 μl/well) (Perkin Elmer) are added to and mixed in wells of a 96-well plate (Costar, Corning) containing 120 μL of buffer. Next, an appropriate aliquot of a membrane preparation containing the human glucagon receptor (isolated from human liver samples or obtained from a recombinant cell line) is added to the wells. The binding mixtures are incubated for 2 hrs at room temperature. In the meantime, a MultiScreen 96-well filter plate (Millipore) is treated with 200 μL of the buffer, which is vacuumed through the filter just before the binding mixtures are transferred to the plate. At the end of incubation, binding mixtures are transferred to the wells of the MultiScreen 96-well filter plate and filtered through by applying vacuum. The plate is washed once with 200 μL per well of the buffer, and the filters are dried and counted using a gamma counter.
The column marked “stereo” indicates whether the tested compound tested was racemic or the R-isomer (rac=racemic).

[1] = Solubility in water, buffers, simulated fluids and Captisol; type: physicochemical; conditions: thermodynamic from solid; for solubility: aqueous with cosolvent or surfactant or cyclodextrin, ambient conditions, UV after 2-3day equilibration; for solubility at 24 h: 25° C., HPLC after 24-hour equilibration
Method: Solubility of a sodium salt of Formula IIIa (below) was determined in water and at various pH values and simulated intestinal fluids using HPLC and UV analysis with and without modified beta-cyclodextrin (Captisol®). Phase solubility was used to estimate the Captisol®: Formula IIIa binding constant. The influence of Captisol® on oral absorption was modelled as shown below. The effect of Captisol® on solution stability was determined by HPLC. Plasma levels of Formula IIIa were measured by LCMS/MS.

[2] = Single ascending dose study, safety and tolerability; type: in vivo, human; conditions: single oral doses 2 to 480 mg in NHV, 40 mg in T2DM subjects
Method: (§1) Oral doses of IIIa were administered to normal healthy volunteers (NHV) and subjects with type 2 diabetes mellitus (T2DM). A single center, randomized, double-blind, placebo-controlled single ascending dose study was done in both NHV (n=48) and T2DM subjects (n=8). Dose escalation only occurred after review of safety and tolerability data from previous dose levels (n=8/cohort; 2-placebo & 6-IIIa). Dosing of the T2DM cohort was initiated only after the equivalent dose had been administered to NHV and safety data had been reviewed. All subjects were administered IIIa in the morning after an overnight fast with the exception of the NHV in the 40 mg cohort. NHV subjects in the 40 mg cohort initially received IIIa in a fasted state. Following a 3 week washout period, IIIa was readministered after breakfast at 40 mg to determine the effects of food consumption on pharmacokinetics.
(§2) This was a single center, randomized, double-blind, placebo-controlled single ascending dose study in both normal healthy volunteers (NHV) (n=48) and subjects with type 2 diabetes mellitus (T2DM) (n=8). All subjects were administered Formula IIIa as a solution formulated with Captisol® after an overnight fast with the exception of the NHV in the 40 mg cohort. The NHV 40 mg cohort initially received Formula IIIa in a fasted state. Following a washout period, subjects received 40 mg Formula IIIa after breakfast to explore the effects of food consumption on pharmacokinetics.
In type 2 diabetes mellitus (T2DM), inappropriately elevated levels of glucagon exacerbate hyperglycemia and its associated complications. Not wishing to be bound to a particular theory, it has been observed that antagonism of glucagon action reduces blood glucose levels and hemoglobin A1c in patients with T2DM. The novel, selective, orally bioavailable glucagon receptor antagonist, Formula IIIa (below), was investigated regarding its pharmacokinetics (PK), safety, and pharmacodynamics (PD) in a first-in-human, ascending, single-dose, double blind, placebo-controlled study in normal healthy (NH) and T2DM subjects (NCT01919684).

[3] = Single ascending dose study, pharmacokinetics; type: in vivo, human; conditions: 2 to 480 mg oral, human subjects
Method: as §1, §2
Plasma levels of Formula IIIa were measured by validated LC-MS/MS method. Formula IIIa was well absorbed after oral administration with peak plasma concentrations reached approximately 5-8 hours post dose. Consistent with preclinical predictions, clearance was slow and Formula IIIa was not detected in the urine.

Row | IC50 (human glucagon receptor) | solubility ([1]; 15% w/v Captisol) | solubility ([1]; 35% w/v Captisol) | solubility at 24 h ([1]; simulated gastric fluid, 0.01N HCL) | solubility at 24 h ([1]; simulated gastric fluid, 0.1N HCL) | solubility at 24 h ([1]; Fasted state simulated intestinal fluid (FaSSIF)) | solubility at 24 h ([1]; Fed state simulated intestinal fluid (FeSSIF)) | solubility at 24 h ([1]; Simulated gastric fluid (SGF)) | solubility at 24 h ([1]; Water) | plasma exposure versus dose [3] | SMILES | tolerability [2]
1 | 9 nM | – | – | – | – | – | – | – | – | – | Cc1cc(Cl)ccc1-c1ccc(NC(=O)C(Cc2ccc(C(=O)NCCS(=O)(=O)O)cc2)c2ccc(C3CCC(C(C)(C)C)CC3)cc2)cc1 (stereo not drawn) | –
2 | 15 nM | – | – | – | – | – | – | – | – | – | Cc1cc(C(F)(F)F)ccc1-c1ccc(NC(=O)C(Cc2ccc(C(=O)NCCS(=O)(=O)O)cc2)c2ccc(C3=CCC(C)(C)CC3)cc2)cc1 (racemic) | –
3 | – | 11530 ± 40 µg/mL | 32900 ± 440 µg/mL | 70 µg/mL | 60 µg/mL | 210 µg/mL | 6540 ± 190 µg/mL | 40 ± 10 µg/mL | 210 ± 10 µg/mL | dose dependent increases | Cc1cc(C)c(C2C=CC(NC(=O)[C@H](Cc3ccc(C(=O)NCCS(=O)(=O)O)cc3)c3ccc(-c4ccc(C(C)(C)C)cc4)cc3)=CC2)c(C)c1 (stereo partly drawn) [Formula IIIa sodium salt] | well tolerated
